Reference: patent publication US20040126359A1, “Hedgehog” (priority 2001, published 2004)
Values belong to the molecule of their own block, whether it stands above or below them.

Key:
[1] = system: CD4+ T-cells; assay: Taqman real time PCR of Shh, Ihh, HIP and Ptc expression in CD4+ T-cells (FIGS. 14, 15, 17); assay type: cell-based; settings: for Hip expression / Shh expression: activated T-cells, IFNγ; for Shh expression / production by activated T-cells: cytokine added
Description: Expression in medium, in the presence of 50 ng/ml IL-10 and in the presence of 50 ng/ml IFN-γ was compared to expression in resting CD4+ T-cells;
Similar experiments were used to study the expression of Shh (FIG. 4) and Ptc (FIG. 5) in T-cells and the expression of components of the Hh signalling pathway in lymphoid tissues (FIG. 6). FIG. 14 illustrates the results of an RT-PCR analysis of Shh, Ihh, Hip and Ptc expression. Activation of T-cells induced a sustained and marked (approximately 80-fold) increase in Shh mRNA, peaking at 44 and 72 hours. It lead to a downregulation of Ptc.

[2] = target: endogenous Shh produced by activated mouse CD4+ T-cells (mouse) (UniProt Q62226); assay: cell-based or functional assay
Sequence of endogenous Shh produced by activated mouse CD4+ T-cells (mouse) (Q62226 25-198 limits assumed): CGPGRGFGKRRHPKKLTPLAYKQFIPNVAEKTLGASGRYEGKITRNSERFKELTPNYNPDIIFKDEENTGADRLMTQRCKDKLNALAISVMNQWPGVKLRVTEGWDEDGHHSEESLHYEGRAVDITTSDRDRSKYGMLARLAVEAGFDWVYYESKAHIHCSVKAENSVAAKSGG

Molecule: IFNγ: cytokine interferon gamma
Hip expression ([1]; 24 and 48 hours): upreguated | Shh expression ([1]; 24 hours): downregulation | Shh expression ([1]; 48 hours): upregulation | Hip expression ([1]; 72 hours): downregulted | Shh expression / production by activated T-cells [1]: downregulation

Molecule: TGF-β
Shh expression / production by activated T-cells [1]: down-regulate

% decrease in the proportion of CD4+ T-cells in S/G2 with anti-Shh antibody (50 µg/ml), cell cycle analysis [2]: 66.2 to 81.6% | % decrease in the proportion of CD4+ T-cells in S/G2 with anti-Shh antibody (50 µg/ml), cell cycle analysis, mean [2]: 73.4% | decrease in proliferation of sub-optimally activated CD4+ T-cells with 50 µg/ml anti-Shh antibody (3H-TdR incorporation) [2]: 71.3 to 85.1%
Molecule: neutralising anti-Shh antibody 5E1

B1: IL-10: immunosuppressive cytokine, interleukin (protein, UniProt P22301 19-178, looked up)
Interleukin-10: SPGQGTQSENSCTHFPGNLPNMLRDLRDAFSRVKTFFQMKDQLDNLLLKESLLEDFKGYLGCQALSEMIQFYLEEVMPQAENQDPDIKAHVNSLGENLKTLRLRLRRCHRFLPCENKSKAVEQVKNAFNKLQEKGIYKAMSEFDIFINYIEAYMTMKIRN
Shh expression / production by activated T-cells [1]: down-regulate
